Measured values as given in publication PMC10046369, “Low-Affinity/High-Selectivity Dopamine Transport Inhibition Sufficient to Rescue Cognitive Functions in the Aging Rat” (Biomolecules, 2023).
Values belong to the compound of their own block, whether it stands above or below them.

How the values were obtained:
Assay in all cases: cell-based
Set-up in all cases: Eurofins Cerep functional GPCR antagonist assay, reference antagonists
5HT1B (h) [1] = biological target: T1, 5HT1B (h) (Homo sapiens, UniProt P28222)
T1 construct: gene HTR1B
T1 sequence (P28222 whole entry): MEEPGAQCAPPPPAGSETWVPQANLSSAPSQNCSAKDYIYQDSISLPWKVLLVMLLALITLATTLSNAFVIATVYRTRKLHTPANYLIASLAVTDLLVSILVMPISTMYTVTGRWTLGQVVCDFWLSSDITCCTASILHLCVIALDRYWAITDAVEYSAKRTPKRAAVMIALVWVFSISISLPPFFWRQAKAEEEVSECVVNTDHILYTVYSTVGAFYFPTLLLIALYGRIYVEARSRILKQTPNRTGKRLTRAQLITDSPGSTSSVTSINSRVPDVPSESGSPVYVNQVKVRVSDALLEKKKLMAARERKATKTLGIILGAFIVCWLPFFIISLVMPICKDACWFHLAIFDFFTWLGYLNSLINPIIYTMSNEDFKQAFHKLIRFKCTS

5HT1B (h) [2] = biological target: T1, 5HT1B (h); remark: listed apart in the source
5-HT2B (h) [3] = biological target: T2, 5-HT2B (h) (Homo sapiens, UniProt P41595)
T2 construct: gene HTR2B
T2 sequence (P41595 whole entry): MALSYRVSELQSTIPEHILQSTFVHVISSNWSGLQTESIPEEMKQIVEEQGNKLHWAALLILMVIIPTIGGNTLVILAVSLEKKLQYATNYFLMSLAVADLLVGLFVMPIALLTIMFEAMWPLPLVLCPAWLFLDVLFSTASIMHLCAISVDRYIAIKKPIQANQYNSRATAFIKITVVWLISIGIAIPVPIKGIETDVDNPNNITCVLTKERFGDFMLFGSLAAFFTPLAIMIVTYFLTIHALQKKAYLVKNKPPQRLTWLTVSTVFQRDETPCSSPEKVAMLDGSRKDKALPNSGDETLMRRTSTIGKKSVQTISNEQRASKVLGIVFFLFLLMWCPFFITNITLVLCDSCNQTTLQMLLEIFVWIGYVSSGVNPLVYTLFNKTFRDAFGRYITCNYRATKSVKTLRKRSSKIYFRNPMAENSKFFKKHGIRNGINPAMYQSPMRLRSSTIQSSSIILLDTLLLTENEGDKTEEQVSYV

5-HT2B (h) [4] = biological target: T2, 5-HT2B (h); remark: listed apart in the source
P2Y1 (h) [5] = biological target: T3, P2Y1 (h) (Homo sapiens, UniProt P47900)
T3 construct: gene P2RY1
T3 sequence (P47900 whole entry): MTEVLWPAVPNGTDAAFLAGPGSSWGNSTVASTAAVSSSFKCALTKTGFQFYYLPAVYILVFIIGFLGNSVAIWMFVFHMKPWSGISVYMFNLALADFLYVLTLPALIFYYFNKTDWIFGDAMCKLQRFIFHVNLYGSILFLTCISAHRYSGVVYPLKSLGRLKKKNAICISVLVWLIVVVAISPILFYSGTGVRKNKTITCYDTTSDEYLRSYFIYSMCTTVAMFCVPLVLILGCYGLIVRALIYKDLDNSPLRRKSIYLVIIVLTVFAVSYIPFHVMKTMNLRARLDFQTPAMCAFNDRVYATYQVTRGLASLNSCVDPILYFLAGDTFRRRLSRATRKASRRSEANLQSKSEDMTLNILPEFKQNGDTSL

P2Y1 (h) [6] = biological target: T3, P2Y1 (h); remark: listed apart in the source

Structure (SMILES): CN(C)CCCc1cc(C(=O)Nc2ccc(-c3ccncc3)cc2)ccc1O [GR55562]
IC50 (5HT1B (h) [1]): 69 nM | Kb (5HT1B (h) [2]): 11 nM

IC50 (5-HT2B (h) [3]): 19 nM | Kb (5-HT2B (h) [4]): 2.9 nM
Structure (SMILES): Cn1ccc2cc3c(cc21)CCN3C(=O)Nc1cccnc1 [SB 206553]

Structure (SMILES): CNc1nc(I)nc2c1ncn2[C@H]1C[C@H](OP(=O)(O)O)[C@]2(COP(=O)(O)O)C[C@H]12 [MRS 2500]
IC50 (P2Y1 (h) [5]): 1.9 nM | Kb (P2Y1 (h) [6]): 0.43 nM
